Data taken from patent US20240377400A1, “METHODS FOR TREATING A SUBTYPE OF COLORECTAL CANCER” (Cornell University, priority 2021, published 2024).

Tested on: tumors from Prkci^fl/fl Prkcz^fl/fl Villin-cre (DKO) mice
Test: scRNAseq and IHC of DKO mouse intestinal tumors treated with PVHA or Galunisertib
Assay type: in vivo
Protocol: FIG. 3A illustrates the experimental design: Prkci^fl/flPrkcz^fl/fl (DKO) mice were treated either with PVHA (0.0375 mg/Kg twice per week) or Galunisertib (10 mg twice daily) as described. Intestinal tumors were analyzed by scRNAseq.
To identify the mechanism of action of PVHA in the treatment of CMS4 tumors, scRNAseq was performed using 10× Genomics Chromium platform on tumors from Prkci^fl/fl Prkcz^fl/fl Villin-cre (DKO) mice (n=5) treated with PVHA for 14 weeks (n=3), as compared to those treated with Galunisertib (GAL) for 17 weeks (n=3), as shown in experimental design (FIG. 3A). Unsupervised clustering identified tumor and normal epithelial cells as well as stromal and immune cells with selective markers for each population (FIGS. 3B-3C). […] Among tumor clusters (0,4,6), a cell population with transcriptomic similarities to the recently identified “revival stem cells” (RSC; high Clu) in the vehicle treated tumors was identified (FIGS. 3F-3G).

What does the source list for Cc1cccc(-c2nn3c(c2-c2ccnc4ccc(C(N)=O)cc24)CCC3)n1 [GAL, Galunisertib, reference compound]?
Cd8 T cells, cell type proportion (scRNAseq T cells): increase; fibroblast clusters associated with human CRC (Grem1/Sfrp1, Igf1/Cxcl14), CMS4 subtype (Sfrp2) and tumor initiation (Ptgs2/Spp1) (scRNAseq cell-type proportion): complete elimination; tumoral goblet population (scRNAseq goblet cells): reduction; T cells, cell-type proportion (scRNAseq immune cells): increase; myeloid cells, cell-type proportion (scRNAseq immune cells): decrease; TAN1 (anti-tumoral neutrophils) (scRNAseq myeloid cells): only increased; TAN2 (pro-tumoral neutrophils) (scRNAseq myeloid cells): without affecting; percentage of stromal and immune cells (scRNAseq, PVHA 0.0375 mg/Kg twice per week, 14 weeks, Galunisertib 10 mg twice daily, 17 weeks): decreased; number of stromal cells (scRNAseq, without apparent changes in cell-type proportions): reduced
